Test results: paper PMC9995905, “Characteristics of antimicrobial peptide OaBac5mini and its bactericidal mechanism against Escherichia coli” (Frontiers in Veterinary Science, 2023)
Values after ≈ are worked out from the molar mass of the structure shown.

Legend:
[1] = test system: S. aureus ATCC 25923; assay: microbe, parasite or virus in culture; conditions: for MIC: Staphylococcus aureus, ATCC25923, read-out: MIC against S. aureus ATCC 25923
Protocol: (§1) MICs of OaBac5mini, amoxicillin, kanamycin, florfenicol and tetracycline were determined using the two-fold broth microdilution method according to the Clinical and Laboratory Standards Institute (CLSI) guidance ([21]). MIC values of the tested antibacterial agents were determined on three independent occasions. Escherichia coli ATCC 25922 was used as the quality control in all the susceptibility tests.

[2] = test system: E. coli ATCC 25922; assay: microbe, parasite or virus in culture; conditions: for MIC: Escherichia coli, ATCC25922, read-out: MIC against E. coli ATCC 25922
Protocol: as §1

[3] = test system: E. coli ATCC 25922 ΔsbmA; conditions: two-fold broth microdilution, CLSI; three independent occasions; sbmA deletion mutant
Protocol: The method described by Datsenko and Wanner was used for chromosomal gene deletion ([20]). […] The PCR fragment (1,567 bp) was purified, digested with DpnI, repurified and transferred into E. coli ATCC 25922 by electroporation, in which the Red recombinase expression plasmid pKD46 was previously transformed and induced by L-arabinose. Transformants were selected on Luria-Bertani (LB) agar containing 50 μg/ml of kanamycin at 37°C. The inserted sequence was amplified from the kanamycin-resistant strains by using the primers SBMF: 5′-[…]-3′ and SBMR: 5′-[…]-3′ which is located outside of inactivated gene. The length of the PCR product of sbmA using the primers set SBMF and SBMR in E. coli ATCC 25922 is 1,404 bp. When sbmA is successfully inactivated, the PCR product (2,198 bp) was amplified and sequenced for the verification of the gene deletion.
as §1

[4] = test system: E. coli 17; assay: microbe, parasite or virus in culture; conditions: for MIC: Escherichia coli, 17, read-out: MIC against E. coli 17
Text: (§2) The strains of E. coli ATCC 25922 and S. aureus ATCC 25923 were purchased from the American Type Culture Collection (ATCC, Manassas, VA, United States). The strains of E. coli W13, E. coli IF4, E. coli 2, and E. coli 17 were individually isolated from the livers of diseased chickens infected by E. coli. The strains of S. aureus B5, S. aureus B9, S. aureus B54, and S. aureus B63 were individually isolated from the milk of cows with mastitis. These clinical isolates were all identified by the VITEK-32 system (bioMérieux, France) and PCR amplification sequencing.
as §1

[5] = test system: S. aureus B9; assay: microbe, parasite or virus in culture; conditions: for MIC: Staphylococcus aureus, B9, read-out: MIC against S. aureus B9
Text: as §2, §1

[6] = test system: E. coli 2; assay: microbe, parasite or virus in culture; conditions: for MIC: Escherichia coli, 2, read-out: MIC against E. coli 2
Text: as §2, §1

[7] = test system: S. aureus B63; assay: microbe, parasite or virus in culture; conditions: for MIC: Staphylococcus aureus, B63, read-out: MIC against S. aureus B63
Text: as §2, §1

[8] = test system: S. aureus B54; assay: microbe, parasite or virus in culture; conditions: for MIC: Staphylococcus aureus, B54, read-out: MIC against S. aureus B54
Text: as §2, §1

[9] = test system: S. aureus B5; assay: microbe, parasite or virus in culture; conditions: for MIC: Staphylococcus aureus, B5, read-out: MIC against S. aureus B5
Text: as §2, §1

[10] = test system: E. coli IF4; assay: microbe, parasite or virus in culture; conditions: for MIC: Escherichia coli, IF4, read-out: MIC against E. coli IF4
Text: as §2, §1

[11] = test system: E. coli W13; assay: microbe, parasite or virus in culture; conditions: for MIC: Escherichia coli, W13, read-out: MIC against E. coli W13
Text: as §2, §1

[12] = two-fold broth microdilution, CLSI, three independent occasions
[13] = two-fold broth microdilution, CLSI, three independent occasions, isolate from diseased chicken liver
[14] = two-fold broth microdilution, CLSI, three independent occasions, isolate from milk of cows with mastitis

Row | Compound | MIC [1] | MIC [2] | MIC against E. coli ATCC 25922 ΔsbmA [3] | MIC [4] | MIC [5] | MIC [6] | MIC [7] | MIC [8] | MIC [9] | MIC [10] | MIC [11] | other results
1 | CC1(C)S[C@@H]2[C@H](NC(=O)[C@H](N)c3ccc(O)cc3)C(=O)N2[C@H]1C(=O)O [AMO, amoxicillin] | 0.67 µg/mL (≈ 1.83 µM) | 8 µg/mL (≈ 21.9 µM) | 8 µg/mL (≈ 21.9 µM) | > 640 µg/mL | 3.33 µg/mL (≈ 9.11 µM) | > 640 µg/mL | 2.08 µg/mL (≈ 5.69 µM) | 3.33 µg/mL (≈ 9.11 µM) | 427 µg/mL (≈ 1170 µM) | > 640 µg/mL | > 640 µg/mL | –
2 | CS(=O)(=O)c1ccc([C@@H](O)[C@@H](CF)NC(=O)C(Cl)Cl)cc1 [FLO, florfenicol] | 16 µg/mL (≈ 44.7 µM) | 4 µg/mL (≈ 11.2 µM) | 5.3 µg/mL (≈ 14.8 µM) | 80 µg/mL (≈ 223 µM) | 1.67 µg/mL (≈ 4.66 µM) | 267 µg/mL (≈ 744 µM) | 1.04 µg/mL (≈ 2.9 µM) | 2.5 µg/mL (≈ 6.98 µM) | 4.17 µg/mL (≈ 11.6 µM) | 80 µg/mL (≈ 223 µM) | 320 µg/mL (≈ 893 µM) | –
3 | NC[C@H]1O[C@H](O[C@H]2[C@H](O)[C@@H](O[C@H]3O[C@H](CO)[C@@H](O)[C@H](N)[C@H]3O)[C@H](N)C[C@@H]2N)[C@H](O)[C@@H](O)[C@@H]1O [KAN, kanamycin] | – | – | – | – | – | – | – | – | – | – | – | MIC against S. aureus ATCC 25923 [1, 12]: 4 µg/mL (≈ 8.26 µM); MIC against E. coli ATCC 25922 [2, 12]: 4 µg/mL (≈ 8.26 µM); MIC against E. coli 17 [4, 13]: 320 µg/mL (≈ 660 µM); MIC against S. aureus B9 [5, 14]: 186.67 µg/mL (≈ 385 µM); MIC against E. coli 2 [6, 13]: >640 µg/mL; MIC against S. aureus B63 [7, 14]: 1.25 µg/mL (≈ 2.58 µM); MIC against S. aureus B54 [8, 14]: 5.83 µg/mL (≈ 12 µM); MIC against S. aureus B5 [9, 14]: 40 µg/mL (≈ 82.6 µM); MIC against E. coli IF4 [10, 13]: >640 µg/mL; MIC against E. coli W13 [11, 13]: 320 µg/mL (≈ 660 µM)
4 | CN(C)[C@@H]1C(O)=C(C(N)=O)C(=O)[C@@]2(O)C(O)=C3C(=O)c4c(O)cccc4[C@@](C)(O)[C@H]3C[C@@H]12 [TET, tetracycline] | 1 µg/mL (≈ 2.25 µM) | 2 µg/mL (≈ 4.5 µM) | 1.67 µg/mL (≈ 3.76 µM) | 160 µg/mL (≈ 360 µM) | 80 µg/mL (≈ 180 µM) | 1 µg/mL (≈ 2.25 µM) | 0.42 µg/mL (≈ 0.945 µM) | 66.7 µg/mL (≈ 150 µM) | 0.08 µg/mL (≈ 0.18 µM) | 133 µg/mL (≈ 300 µM) | 160 µg/mL (≈ 360 µM) | –
